# Laboratory results from US20060210554A1, “Detection of cholesterol ozonation products” (priority 2003, published 2006).
# Tests used:
# [1] = Aldolization of ketoaldehyde 4a with amino acids (1H NMR); format: physicochemical; settings: L-Lys(OEt).2HCl, 1 equivalent, 100 h, DMSO-d6/D2O
# Method: Aldolization of ketoaldehyde 4a with amino acids. […] To this solution was added 1 equivalent of either: a) L-proline, b) glycine, c) L-lysine hydrochloride or d) L-lysine ethyl ester dihydrochloride. At time points the samples were analyzed by ^1H NMR.
# apoB-100 of human LDL = apoB-100 of human LDL (Homo sapiens, UniProt P04114); assay: Circular dichroism of LDL secondary structure; settings: LDL 100 μg/ml, compound 10 μM, PBS pH 7.4, 37° C., up to 48 h; for random coil of LDL protein after incubation: normal LDL 27±2%; for a helical structure of LDL protein after incubation: normal LDL ~40±2%
# Chain of apoB-100 of human LDL (P04114 28-4563): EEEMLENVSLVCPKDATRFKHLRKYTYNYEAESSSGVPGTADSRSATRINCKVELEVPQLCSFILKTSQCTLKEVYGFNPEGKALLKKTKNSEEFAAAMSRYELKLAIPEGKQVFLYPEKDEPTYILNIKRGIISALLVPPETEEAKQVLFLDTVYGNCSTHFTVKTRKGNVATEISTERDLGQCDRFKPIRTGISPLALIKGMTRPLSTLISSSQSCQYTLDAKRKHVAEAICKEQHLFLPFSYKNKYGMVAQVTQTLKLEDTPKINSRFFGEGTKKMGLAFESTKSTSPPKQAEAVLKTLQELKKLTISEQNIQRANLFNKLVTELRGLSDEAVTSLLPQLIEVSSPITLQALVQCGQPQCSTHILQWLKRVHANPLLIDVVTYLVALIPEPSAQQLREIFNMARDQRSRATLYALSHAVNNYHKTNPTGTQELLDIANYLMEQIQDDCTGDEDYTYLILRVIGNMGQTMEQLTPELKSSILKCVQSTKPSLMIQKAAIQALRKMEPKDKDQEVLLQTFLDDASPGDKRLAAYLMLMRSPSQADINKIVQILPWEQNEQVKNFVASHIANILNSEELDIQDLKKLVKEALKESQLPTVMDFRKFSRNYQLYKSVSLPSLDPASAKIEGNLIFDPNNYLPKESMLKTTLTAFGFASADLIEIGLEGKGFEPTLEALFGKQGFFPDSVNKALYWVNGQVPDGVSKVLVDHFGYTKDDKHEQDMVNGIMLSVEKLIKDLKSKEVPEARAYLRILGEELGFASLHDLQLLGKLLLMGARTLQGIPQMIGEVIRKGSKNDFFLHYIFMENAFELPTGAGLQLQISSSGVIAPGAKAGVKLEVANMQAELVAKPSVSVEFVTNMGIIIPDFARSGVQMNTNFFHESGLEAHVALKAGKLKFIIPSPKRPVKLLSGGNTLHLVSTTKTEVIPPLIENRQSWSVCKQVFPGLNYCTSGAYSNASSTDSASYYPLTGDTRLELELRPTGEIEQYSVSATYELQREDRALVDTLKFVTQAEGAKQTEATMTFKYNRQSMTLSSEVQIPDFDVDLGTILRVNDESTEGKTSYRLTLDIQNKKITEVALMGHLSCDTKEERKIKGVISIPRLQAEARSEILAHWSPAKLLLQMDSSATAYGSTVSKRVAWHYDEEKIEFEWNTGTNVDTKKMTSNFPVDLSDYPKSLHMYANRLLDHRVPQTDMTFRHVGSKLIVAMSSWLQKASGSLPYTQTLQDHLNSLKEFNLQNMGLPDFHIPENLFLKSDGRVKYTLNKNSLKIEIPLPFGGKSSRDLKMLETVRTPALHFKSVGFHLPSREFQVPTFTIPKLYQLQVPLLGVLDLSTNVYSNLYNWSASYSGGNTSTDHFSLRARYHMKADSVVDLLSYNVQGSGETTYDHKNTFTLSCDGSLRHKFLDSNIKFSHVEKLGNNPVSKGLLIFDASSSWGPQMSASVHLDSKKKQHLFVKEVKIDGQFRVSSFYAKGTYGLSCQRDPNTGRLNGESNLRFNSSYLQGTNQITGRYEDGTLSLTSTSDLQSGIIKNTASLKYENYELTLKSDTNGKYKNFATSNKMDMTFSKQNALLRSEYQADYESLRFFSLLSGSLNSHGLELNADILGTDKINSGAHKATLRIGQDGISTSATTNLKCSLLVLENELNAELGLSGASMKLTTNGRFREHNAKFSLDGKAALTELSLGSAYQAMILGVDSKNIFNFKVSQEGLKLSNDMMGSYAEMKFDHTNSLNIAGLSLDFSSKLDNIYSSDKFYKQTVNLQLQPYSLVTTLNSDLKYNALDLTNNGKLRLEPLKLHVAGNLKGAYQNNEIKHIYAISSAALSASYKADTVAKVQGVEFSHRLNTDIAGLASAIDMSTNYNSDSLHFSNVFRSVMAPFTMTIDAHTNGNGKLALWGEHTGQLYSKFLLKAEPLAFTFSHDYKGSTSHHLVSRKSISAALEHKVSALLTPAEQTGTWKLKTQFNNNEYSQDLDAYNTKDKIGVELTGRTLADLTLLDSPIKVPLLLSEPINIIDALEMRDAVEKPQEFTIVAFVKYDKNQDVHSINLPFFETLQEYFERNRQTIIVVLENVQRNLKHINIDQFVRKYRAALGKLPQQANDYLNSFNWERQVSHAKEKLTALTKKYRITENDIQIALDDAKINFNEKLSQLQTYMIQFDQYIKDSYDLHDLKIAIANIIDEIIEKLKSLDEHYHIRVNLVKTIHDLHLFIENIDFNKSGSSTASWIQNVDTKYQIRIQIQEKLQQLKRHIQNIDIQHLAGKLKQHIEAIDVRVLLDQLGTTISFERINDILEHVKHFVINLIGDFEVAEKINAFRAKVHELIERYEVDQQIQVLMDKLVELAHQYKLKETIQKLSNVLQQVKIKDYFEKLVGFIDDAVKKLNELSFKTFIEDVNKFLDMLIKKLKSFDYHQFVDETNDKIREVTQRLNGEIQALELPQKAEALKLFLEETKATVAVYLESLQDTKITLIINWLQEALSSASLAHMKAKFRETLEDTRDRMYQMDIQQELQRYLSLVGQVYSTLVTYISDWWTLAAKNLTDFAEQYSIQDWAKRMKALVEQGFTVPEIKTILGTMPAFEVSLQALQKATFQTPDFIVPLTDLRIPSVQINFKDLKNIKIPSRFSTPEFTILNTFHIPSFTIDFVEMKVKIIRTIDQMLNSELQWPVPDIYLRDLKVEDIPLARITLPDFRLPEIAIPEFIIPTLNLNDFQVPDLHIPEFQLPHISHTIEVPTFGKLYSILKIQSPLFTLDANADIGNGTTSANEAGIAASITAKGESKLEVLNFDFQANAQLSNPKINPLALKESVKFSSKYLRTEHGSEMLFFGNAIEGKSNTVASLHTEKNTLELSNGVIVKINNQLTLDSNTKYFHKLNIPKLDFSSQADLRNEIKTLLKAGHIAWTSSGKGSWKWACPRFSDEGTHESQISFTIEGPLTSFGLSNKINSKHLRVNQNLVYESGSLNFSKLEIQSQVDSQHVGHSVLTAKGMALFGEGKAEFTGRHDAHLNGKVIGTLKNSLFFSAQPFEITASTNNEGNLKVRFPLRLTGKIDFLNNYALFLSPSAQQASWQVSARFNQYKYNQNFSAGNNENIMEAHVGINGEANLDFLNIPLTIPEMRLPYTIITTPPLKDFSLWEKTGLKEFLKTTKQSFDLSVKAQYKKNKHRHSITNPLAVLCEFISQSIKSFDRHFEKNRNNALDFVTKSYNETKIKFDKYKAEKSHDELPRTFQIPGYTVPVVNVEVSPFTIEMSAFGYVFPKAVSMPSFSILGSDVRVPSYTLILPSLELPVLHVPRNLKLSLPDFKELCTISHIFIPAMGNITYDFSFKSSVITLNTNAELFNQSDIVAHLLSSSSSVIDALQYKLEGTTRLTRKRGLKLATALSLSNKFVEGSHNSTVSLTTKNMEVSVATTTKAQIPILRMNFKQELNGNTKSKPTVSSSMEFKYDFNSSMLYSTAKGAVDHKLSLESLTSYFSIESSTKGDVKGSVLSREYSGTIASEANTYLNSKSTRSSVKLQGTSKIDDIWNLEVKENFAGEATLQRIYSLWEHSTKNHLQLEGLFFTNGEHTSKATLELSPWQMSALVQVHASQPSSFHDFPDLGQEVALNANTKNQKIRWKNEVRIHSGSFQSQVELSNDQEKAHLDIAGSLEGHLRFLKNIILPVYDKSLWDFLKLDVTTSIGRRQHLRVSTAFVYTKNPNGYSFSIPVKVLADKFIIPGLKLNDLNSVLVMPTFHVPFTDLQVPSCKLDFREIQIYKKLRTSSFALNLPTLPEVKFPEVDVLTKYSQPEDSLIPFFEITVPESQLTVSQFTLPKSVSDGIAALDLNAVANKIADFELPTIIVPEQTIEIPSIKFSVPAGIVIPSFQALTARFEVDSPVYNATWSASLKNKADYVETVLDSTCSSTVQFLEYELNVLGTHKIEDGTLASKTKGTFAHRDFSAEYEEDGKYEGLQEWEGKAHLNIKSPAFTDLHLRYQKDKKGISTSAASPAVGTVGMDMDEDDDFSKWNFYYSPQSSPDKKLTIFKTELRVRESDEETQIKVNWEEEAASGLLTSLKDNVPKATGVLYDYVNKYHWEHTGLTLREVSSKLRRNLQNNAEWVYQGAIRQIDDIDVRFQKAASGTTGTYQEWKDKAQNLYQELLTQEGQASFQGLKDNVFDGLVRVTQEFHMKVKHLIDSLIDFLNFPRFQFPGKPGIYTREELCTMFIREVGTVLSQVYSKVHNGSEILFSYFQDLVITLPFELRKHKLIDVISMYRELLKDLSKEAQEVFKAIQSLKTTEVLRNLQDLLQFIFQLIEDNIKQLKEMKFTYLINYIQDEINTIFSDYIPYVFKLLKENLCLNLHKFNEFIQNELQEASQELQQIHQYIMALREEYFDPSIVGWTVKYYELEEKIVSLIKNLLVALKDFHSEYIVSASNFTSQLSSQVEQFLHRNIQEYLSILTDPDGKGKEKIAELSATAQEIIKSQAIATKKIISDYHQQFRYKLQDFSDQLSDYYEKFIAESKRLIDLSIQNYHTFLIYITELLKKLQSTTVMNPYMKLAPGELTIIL
# Method: Circular dichroism. […] Spectra were recorded in the peptidic range (200-260 nm). To increase the signal-to-noise ratio, multiple spectra (three) were averaged for each measurement.
SMILES,conversion of 4a into 5a [1] [% conversion],random coil of LDL protein after incubation (apoB-100 of human LDL) [%],a helical structure of LDL protein after incubation (apoB-100 of human LDL) [%]
"CC(C)CCC[C@@H](C)[C@H]1CCC2C(CC=O)C([C@@]3(C)CC[C@H](O)CC3=O)CC[C@@]21C (some centres unmarked) [4a, 3βHydroxy-5-oxo-5,6-secocholestan-6-al]",62,~39±2,~23±5
"CC(C)CCC[C@@H](C)[C@H]1CCC2C3C(CC[C@@]21C)[C@@]1(C)CC[C@H](O)C[C@@]1(O)[C@@H]3C=O (stereo partly drawn) [5a, 3β-Hydroxy-5β-hydroxy-B-norcholestane-6β-carboxaldehyde]",–,32±4,~20±2
